The test system of one assay is E0771 cells. Description: Flow cytometry of E0771 cells in co-culture with CD8+ T cells. Format: cell-based, mouse. Particulars: E0771 alone, staurosporine 1 μM, 1 h. Here is the method: Treatments with staurosporine (1 μM) were for 1 h. […]
mouse CD8+ T cells and mKate-E0771 cells. b) Representative flow cytometry contour plots of E0771 cells in: left) co-cultures of E0771 cells (50,000 cells well-1) and activated […]
cells well-1), right) E0771 alone cells treated with staurosporine (1 µM, 1 h). c) Representative flow cytometry contour plots of CD8+ T cells in: left) co-cultures of E0771 […]
2 h) murine CD8+ T cells (200,000 cells well -1). All cultures in b) and c) were equally […]
with and without preincubation of the GzmB inhibitor Ac -IEPD-CHO. Data presented as […]
633/670 nm (for AF647-Annexin V). Representative plots from independent experiments performed in triplicate. Source data in d provided as a Source Data file.
Background: In flow cytometry, cells or beads pass a laser one at a time.

Assay [1] has as its target T1, human GzmB (hGzmB) (Homo sapiens, UniProt P10144).
T1 construct: For active GzmB vs pro-GzmB, p < 0.0001
Description: Fluorescence assay with recombinant hGzmB (fluorogenic response, time course). Format: biochemical. Here is the method: Fluorescence-based assays with different enzymes were performed in the appropriate buffers. Probes (25 μM) were added to enzymes (20 nM or at the indicated concentrations) in 384-well plates and their fluorescence emission was recorded at 450 nm (for AMC) or 510 nm (for BODIPY) at 37 °C using a Synergy H1 Hybrid spectrophotometer. In experiments with Ac-IEPD-CHO (50 μM), the inhibitor was preincubated for 1 h with GzmB before the addition of any probe.

Assay [2] has as its target T1, human GzmB (hGzmB). Description: HPLC conversion of fluorogenic peptides by hGzmB. The conditions noted are these: probe 25 μM (Ac-IEPD-AMC 50 μM), TRIS buffer, 37 °C, HPLC-UV. Format: biochemical. As to the method:
Supplementary Figure 1. Reactivity of fluorogenic substrates against human GzmB and limits of detection. a) Reaction conversion rates (by HPLC-UV detection at 350 nm) for Ac-IEPD-AMC (50 μM) in TRIS buffer (see Methods) at 37 °C containing different concentrations of hGzmB. Data presented as mean values±SEM (n=3 independent biological experiments). b) Reaction conversion rates (by HPLC-UV detection at 500 nm) for the tetrapeptide T1 (25 μM) in TRIS buffer at 37 °C containing different concentrations of hGzmB. Data presented as mean values±SEM (3 independent biological experiments).
Source data provided as a Source Data file.
(1 picture or pasted object on this page, not shown here)
Supplementary Table 1. Chemical structures and reactivity of FRET-based tetrapeptides against human GzmB.
Code Structure Linker Quencher HPLC conversion HPLC conversion […]
Supplementary Table 2. Sequences and reactivity of FRET-based hexapeptides against […]
Code Peptide sequence HPLC conversion
H1 Ile-Glu-Pro-Asp-Ala-Gly 75%
H2 Ile-Glu-Pro-Asp-Ser-Gly 80%
H3 Ile-Glu-Pro-Asp-Ser-Leu 80%
H4 Ile-Glu-Pro-Asp-Trp-Leu 82%
H6 Ile-Glu-Pro-Asp-Trp-Arg 40%
H7 Ile-Glu-Pro-Asp-Arg-Leu 60%
H5m Ile-Glu-Phe-Asp-Ala-Leu 70%

The target of a further assay is T2, recombinant human GzmB (Homo sapiens, UniProt P10144).
T2 construct: For active GzmB vs pro-GzmB, p < 0.0001
T2 sequence (P10144 21-247): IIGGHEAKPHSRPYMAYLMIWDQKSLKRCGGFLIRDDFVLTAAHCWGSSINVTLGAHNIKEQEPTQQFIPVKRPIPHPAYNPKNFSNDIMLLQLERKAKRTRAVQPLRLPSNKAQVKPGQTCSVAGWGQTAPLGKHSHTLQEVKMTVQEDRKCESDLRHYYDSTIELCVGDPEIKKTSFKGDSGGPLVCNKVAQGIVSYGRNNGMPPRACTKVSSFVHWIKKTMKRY
Description: Kinetic measurements (Michaelis-Menten) with recombinant hGzmB. Format: biochemical. Particulars: Supplementary Table 4, recombinant human GzmB. Here is the method: Fluorescence-based assays with different enzymes were performed in the appropriate buffers. […] In experiments with Ac-IEPD-CHO (50 μM), the inhibitor was preincubated for 1 h with GzmB before the addition of any probe.
Supplementary Table 4. Kinetic values determined for hexapeptides H2-H5 against
Probe Sequence kcat kcat / KM

Where [3] appears, read: probe 25 μM, hGzmB 20 nM, Data 1.
[4] abbreviates: probe 25 μM, hGzmB 20 nM, Data 2.
Where [5] appears, read: probe 25 μM, hGzmB 20 nM, Data 3.

The results in this text go back to publication PMC9061857, “A fluorogenic probe for granzyme B enables in-biopsy evaluation and screening of response to anticancer immunotherapies” (Nature Communications, 2022).

Where no end group is shown, it is not given here.

T1 sequence (P10144 21-247): as above

`CN[C@@H]1C[C@H]2O[C@@](C)([C@@H]1OC)n1c3ccccc3c3c4c(c5c6ccccc6n2c5c31)C(=O)NC4` [staurosporine, reference compound]: the “Annexin V +ve E0771 cells” value is 84% in the assay on E0771 cells (replicate 1), 62% with E0771 cells (replicate 2) and 71% in the assay on E0771 cells (replicate 3). Further, the “viable E0771 cells” value amounted to 13% in the assay on E0771 cells (replicate 1), 37% in the assay on E0771 cells (replicate 2) and 27% with E0771 cells (replicate 3).

With Ac-IEPD-aldehyde [reference compound], the “effect on the fluorescence response of H5 to hGzmB” value at human GzmB (hGzmB) [1] (Ac-IEPD-CHO 50 μM preincubated 1 h with GzmB) is “markedly reduced”.

Regarding IEPDAG [H1, FRET hexapeptide IEPDAG], the “HPLC conversion (20 nM hGzmB, 2 h)” value on human GzmB (hGzmB) [2] came out at 75%. In addition, the S/N ratios on human GzmB (hGzmB) [1] (setting [3]) is 61; on human GzmB (hGzmB) [1] (setting [4]), 48; at human GzmB (hGzmB) [1] (setting [5]), 55. For the same compound, the t50 was found to be 32 min at human GzmB (hGzmB) [1] (setting [3]), 38 min at human GzmB (hGzmB) [1] (setting [4]) and 36 min on human GzmB (hGzmB) [1] (setting [5]).

With “IEPDRL [H7, negative control FRET hexapeptide IEPDRL]”, the “HPLC conversion (20 nM hGzmB, 2 h)” value on human GzmB (hGzmB) [2] amounted to 60%. Further, the S/N ratios at human GzmB (hGzmB) [1] (setting [4]) stood at 14; at human GzmB (hGzmB) [1] (setting [5]), 13.

As to IEPDSG [H2, FRET hexapeptide IEPDSG], the “HPLC conversion (20 nM hGzmB, 2 h)” value on human GzmB (hGzmB) [2] is reported as 80%. For the same compound, the S/N ratios on human GzmB (hGzmB) [1] (setting [3]) is 67; on human GzmB (hGzmB) [1] (setting [4]), 70; on human GzmB (hGzmB) [1] (setting [5]) it was 69. In addition, the t50 on human GzmB (hGzmB) [1] (setting [3]) came to 13 min; on human GzmB (hGzmB) [1] (setting [4]) it was 15 min; at human GzmB (hGzmB) [1] (setting [5]), 14 min. Moreover, on recombinant human GzmB, the kcat (usually the number of substrate molecules converted per active site and unit of time at saturation) turned out to be 11.2 s⁻¹.

Take IEPDSL [H3, FRET hexapeptide IEPDSL]: the “HPLC conversion (20 nM hGzmB, 2 h)” value on human GzmB (hGzmB) [2] was 80%. Moreover, the S/N ratios is listed as 68 on human GzmB (hGzmB) [1] (setting [3]), 76 at human GzmB (hGzmB) [1] (setting [4]) and 73 at human GzmB (hGzmB) [1] (setting [5]). Further, the results for the t50 at human GzmB (hGzmB) [1] (setting [3]), at human GzmB (hGzmB) [1] (setting [4]) and on human GzmB (hGzmB) [1] (setting [5]) were 15 min, 18 min and 14 min, respectively. Further, the kcat on recombinant human GzmB came to 23.6 s⁻¹.

Regarding IEPDWL [H4, FRET hexapeptide IEPDWL], the “HPLC conversion (20 nM hGzmB, 2 h)” value at human GzmB (hGzmB) [2] was found to be 82%. Moreover, the results for the S/N ratios at human GzmB (hGzmB) [1] (setting [3]), at human GzmB (hGzmB) [1] (setting [4]) and on human GzmB (hGzmB) [1] (setting [5]) were 78, 73 and 75, respectively. In addition, the t50 on human GzmB (hGzmB) [1] (setting [3]) worked out at 51 min; at human GzmB (hGzmB) [1] (setting [4]), 55 min; at human GzmB (hGzmB) [1] (setting [5]), 56 min. For the same compound, the kcat at recombinant human GzmB is 28.2 s⁻¹.

With “IEPDWR [H6, negative control FRET hexapeptide IEPDWR]”, on human GzmB (hGzmB) [2], the “HPLC conversion (20 nM hGzmB, 2 h)” value came to 40%. The S/N ratios at human GzmB (hGzmB) [1] (setting [4]) worked out at 39; on human GzmB (hGzmB) [1] (setting [5]) it was 40. In addition, the “S/N ratios (fluorescence increase, signal-to-background)” value on human GzmB (hGzmB) [1] (probe 25 μM, hGzmB 20 nM, mean ± SEM, n = 3) was determined as 12.
